Numbers after ± are expanded uncertainties.
Assay: xn = mol fraction of the nth substance listed
Details: 100 kPa, Liquid; for speed of sound: Frequency=3 MHz, Linear variable-path acoustic interferometer; for mass density: Vibrating tube method

For CCn1cc[n+](C)c1.O=S(=O)([O-])O [1-ethyl-3-methylimidazolium hydrogen sulfate] + CCO, the speed of sound (298.15 K, x1 = 0.0281) was 1190.1 ± 1.6 m/s, the speed of sound (298.15 K, x1 = 0.0878) was 1289.8 ± 1.6 m/s and the speed of sound (298.15 K, x1 = 0.1779) was 1416.2 ± 1.8 m/s. The speed of sound (298.15 K, x1 = 0.3378) was 1577.8 ± 1.9 m/s, the speed of sound (298.15 K, x1 = 0.4731) was 1698.6 ± 2.1 m/s and the speed of sound (298.15 K, x1 = 0.577) was 1780.2 ± 2.3 m/s. It also gave a speed of sound (298.15 K, x1 = 0.6689) of 1836.4 ± 2.4 m/s, a speed of sound (298.15 K, x1 = 0.7759) of 1893.6 ± 2.5 m/s and a speed of sound (298.15 K, x1 = 0.8797) of 1943.4 ± 2.7 m/s. It also gave a speed of sound (298.15 K, x1 = 1) of 1982.8 ± 2.9 m/s, a mass density (298.15 K, x1 = 0.0281) of 829.67 ± 2.2 kg/m3 and a mass density (298.15 K, x1 = 0.0878) of 910.66 ± 2.3 kg/m3. It also gave a mass density (298.15 K, x1 = 0.1779) of 1007.45 ± 2.3 kg/m3, a mass density (298.15 K, x1 = 0.3378) of 1129.95 ± 2.4 kg/m3 and a mass density (298.15 K, x1 = 0.4731) of 1203.92 ± 2.5 kg/m3. For the same compound, the mass density (298.15 K, x1 = 0.577) was 1248.74 ± 2.5 kg/m3, the mass density (298.15 K, x1 = 0.6689) was 1281.87 ± 2.6 kg/m3 and the mass density (298.15 K, x1 = 0.7759) was 1314.38 ± 2.7 kg/m3. For the same compound, the mass density (298.15 K, x1 = 0.8797) was 1340.71 ± 2.8 kg/m3, the mass density (298.15 K, x1 = 1) was 1365.75 ± 2.5 kg/m3 and the speed of sound (303.15 K, x1 = 0.0281) was 1170.6 ± 1.6 m/s. The speed of sound (303.15 K, x1 = 0.0878) was 1267.3 ± 1.6 m/s, the speed of sound (303.15 K, x1 = 0.1779) was 1393.3 ± 1.7 m/s and the speed of sound (303.15 K, x1 = 0.3378) was 1558.4 ± 1.9 m/s. For the same compound, the speed of sound (303.15 K, x1 = 0.4731) was 1675.8 ± 2.1 m/s, the speed of sound (303.15 K, x1 = 0.577) was 1755.7 ± 2.2 m/s and the speed of sound (303.15 K, x1 = 0.6689) was 1816.2 ± 2.4 m/s. For the same compound, the speed of sound (303.15 K, x1 = 0.7759) was 1871.9 ± 2.5 m/s, the speed of sound (303.15 K, x1 = 0.8797) was 1922.1 ± 2.7 m/s and the speed of sound (303.15 K, x1 = 1) was 1962.9 ± 2.8 m/s. The mass density (303.15 K, x1 = 0.0281) was 825.5 ± 2.2 kg/m3, the mass density (303.15 K, x1 = 0.0878) was 906.7 ± 2.3 kg/m3 and the mass density (303.15 K, x1 = 0.1779) was 1003.74 ± 2.3 kg/m3. For the same compound, the mass density (303.15 K, x1 = 0.3378) was 1126.52 ± 2.4 kg/m3, the mass density (303.15 K, x1 = 0.4731) was 1200.65 ± 2.5 kg/m3 and the mass density (303.15 K, x1 = 0.577) was 1245.56 ± 2.5 kg/m3. The mass density (303.15 K, x1 = 0.6689) was 1278.69 ± 2.6 kg/m3, the mass density (303.15 K, x1 = 0.7759) was 1311.18 ± 2.7 kg/m3 and the mass density (303.15 K, x1 = 0.8797) was 1337.51 ± 2.8 kg/m3. It also gave a mass density (303.15 K, x1 = 1) of 1362.62 ± 2.5 kg/m3, a speed of sound (308.15 K, x1 = 0.0281) of 1152.1 ± 1.6 m/s and a speed of sound (308.15 K, x1 = 0.0878) of 1245.3 ± 1.6 m/s. The speed of sound (308.15 K, x1 = 0.1779) was 1370.9 ± 1.7 m/s, the speed of sound (308.15 K, x1 = 0.3378) was 1538.6 ± 1.9 m/s and the speed of sound (308.15 K, x1 = 0.4731) was 1653 ± 2.1 m/s. It also gave a speed of sound (308.15 K, x1 = 0.577) of 1731.4 ± 2.2 m/s, a speed of sound (308.15 K, x1 = 0.6689) of 1796 ± 2.4 m/s and a speed of sound (308.15 K, x1 = 0.7759) of 1850.2 ± 2.5 m/s. It also gave a speed of sound (308.15 K, x1 = 0.8797) of 1900.8 ± 2.7 m/s, a speed of sound (308.15 K, x1 = 1) of 1943.1 ± 2.8 m/s and a mass density (308.15 K, x1 = 0.0281) of 821.28 ± 2.2 kg/m3. The mass density (308.15 K, x1 = 0.0878) was 902.7 ± 2.3 kg/m3, the mass density (308.15 K, x1 = 0.1779) was 999.98 ± 2.3 kg/m3 and the mass density (308.15 K, x1 = 0.3378) was 1123.06 ± 2.4 kg/m3. The mass density (308.15 K, x1 = 0.4731) was 1197.38 ± 2.5 kg/m3, the mass density (308.15 K, x1 = 0.577) was 1242.38 ± 2.5 kg/m3 and the mass density (308.15 K, x1 = 0.6689) was 1275.52 ± 2.6 kg/m3. The mass density (308.15 K, x1 = 0.7759) was 1308 ± 2.7 kg/m3, the mass density (308.15 K, x1 = 0.8797) was 1334.34 ± 2.8 kg/m3 and the mass density (308.15 K, x1 = 1) was 1359.53 ± 2.5 kg/m3. The speed of sound (313.15 K, x1 = 0.0281) was 1132.9 ± 1.5 m/s, the speed of sound (313.15 K, x1 = 0.0878) was 1222.8 ± 1.6 m/s and the speed of sound (313.15 K, x1 = 0.1779) was 1348 ± 1.7 m/s. It also gave a speed of sound (313.15 K, x1 = 0.3378) of 1516.6 ± 1.9 m/s, a speed of sound (313.15 K, x1 = 0.4731) of 1630.3 ± 2.1 m/s and a speed of sound (313.15 K, x1 = 0.577) of 1707.9 ± 2.2 m/s. For the same compound, the speed of sound (313.15 K, x1 = 0.6689) was 1773.8 ± 2.3 m/s, the speed of sound (313.15 K, x1 = 0.7759) was 1828.5 ± 2.5 m/s and the speed of sound (313.15 K, x1 = 0.8797) was 1879.5 ± 2.6 m/s. It also gave a speed of sound (313.15 K, x1 = 1) of 1923.2 ± 2.8 m/s, a mass density (313.15 K, x1 = 0.0281) of 817 ± 2.2 kg/m3 and a mass density (313.15 K, x1 = 0.0878) of 898.63 ± 2.3 kg/m3. The mass density (313.15 K, x1 = 0.1779) was 996.14 ± 2.3 kg/m3, the mass density (313.15 K, x1 = 0.3378) was 1119.54 ± 2.4 kg/m3 and the mass density (313.15 K, x1 = 0.4731) was 1194.05 ± 2.5 kg/m3. For the same compound, the mass density (313.15 K, x1 = 0.577) was 1239.13 ± 2.5 kg/m3, the mass density (313.15 K, x1 = 0.6689) was 1272.31 ± 2.6 kg/m3 and the mass density (313.15 K, x1 = 0.7759) was 1304.78 ± 2.7 kg/m3. It also gave a mass density (313.15 K, x1 = 0.8797) of 1331.14 ± 2.8 kg/m3 and a mass density (313.15 K, x1 = 1) of 1356.41 ± 2.5 kg/m3.
